Assay results reported in ChEMBL document CHEMBL3046479, “Preparation and antimicrobial activity evaluation of some new bi- and triheterocyclic azoles” (2013).
In brackets after ≈: the same amount, converted by molar mass. Activity calls are given as the source filed them. The rule behind the calls is not given here.

What was measured:
Assay type in all cases: functional
[1] = tested on: Candida albicans; test: Antimicrobial activity against Candida albicans ATCC 60193 assessed as growth inhibition after 18-24 hr by broth double microdilution method
[2] = tested on: Mycolicibacterium smegmatis; test: Antimicrobial activity against Mycobacterium smegmatis ATCC 607 assessed as growth inhibition after 48-72 hr by broth double microdilution method
[3] = tested on: Bacillus cereus; test: Antimicrobial activity against Bacillus cereus 709 Roma assessed as growth inhibition after 18-24 hr by broth double microdilution method
[4] = tested on: Staphylococcus aureus; test: Antimicrobial activity against Staphylococcus aureus ATCC 25923 assessed as growth inhibition after 18-24 hr by broth double microdilution method
[5] = tested on: Enterococcus faecalis; test: Antimicrobial activity against Enterococcus faecalis ATCC 29212 assessed as growth inhibition after 18-24 hr by broth double microdilution method
[6] = tested on: Listeria monocytogenes; test: Antimicrobial activity against Listeria monocytogenes ATCC 43251 assessed as growth inhibition after 18-24 hr by broth double microdilution method
[7] = tested on: Pseudomonas aeruginosa; test: Antimicrobial activity against Pseudomonas aeruginosa ATCC 10145 assessed as growth inhibition after 18-24 hr by broth double microdilution method
[8] = tested on: Yersinia pseudotuberculosis; test: Antimicrobial activity against Yersinia pseudotuberculosis ATCC 911 assessed as growth inhibition after 18-24 hr by broth double microdilution method
[9] = tested on: Escherichia coli; test: Antimicrobial activity against Escherichia coli ATCC 35218 assessed as growth inhibition after 18-24 hr by broth double microdilution method
[10] = tested on: Saccharomyces cerevisiae; test: Antimicrobial activity against Saccharomyces cerevisiae RSKK 251 assessed as growth inhibition after 18-24 hr by broth double microdilution method

Compound | MIC [1] | MIC [2] | MIC [3] | MIC [4] | MIC [5] | MIC [6] | MIC [7] | MIC [8] | MIC [9] | MIC [10]
Cc1nn(CC(=O)NNC(=S)Nc2ccccc2)c(=O)n1CCCn1ccnc1 | 250 µg/mL (≈ 603 µM) | 31.3 µg/mL (≈ 75.5 µM) | inactive | inactive | inactive | inactive | inactive | inactive | inactive | 62.5 µg/mL (≈ 151 µM)
Cc1nn(-c2ccc(N)cc2F)c(=O)n1CCCn1ccnc1 | 250 µg/mL (≈ 790 µM) | 31.3 µg/mL (≈ 98.9 µM) | inactive | inactive | inactive | inactive | inactive | inactive | inactive | 62.5 µg/mL (≈ 198 µM)
Cc1nn(CNC2C(=O)N3C2SC(C)(C)C3C(=O)O)c(=O)n1CCCn1ccnc1 (stereo not drawn) | inactive | 31.3 µg/mL (≈ 71.9 µM) | 125 µg/mL (≈ 287 µM) | 62.5 µg/mL (≈ 144 µM) | inactive | inactive | 125 µg/mL (≈ 287 µM) | 125 µg/mL (≈ 287 µM) | inactive | inactive
Cc1nn(CC(=O)N/N=c2\sc(-c3ccc(Cl)cc3)cn2-c2ccccc2)c(=O)n1/N=C/c1ccncc1 | 125 µg/mL (≈ 229 µM) | inactive | 125 µg/mL (≈ 229 µM) | 125 µg/mL (≈ 229 µM) | inactive | inactive | inactive | inactive | inactive | 250 µg/mL (≈ 459 µM)
Cc1nn(CNCCN2CCNCC2)c(=O)n1CCCn1ccnc1 | 125 µg/mL (≈ 359 µM) | 500 µg/mL (≈ 1430 µM) | inactive | 125 µg/mL (≈ 359 µM) | inactive | inactive | inactive | 62.5 µg/mL (≈ 179 µM) | 1.2 µg/mL (≈ 3.44 µM) | 
Cc1nn(CC(=O)N/N=C2\SCC(=O)N2c2ccccc2)c(=O)n1CCCn1ccnc1 | inactive | 62.5 µg/mL (≈ 138 µM) | inactive | inactive | inactive | inactive | inactive | inactive | inactive | inactive
Cc1nn(CC(=O)NN)c(=O)n1/N=C/c1ccncc1 | 500 µg/mL (≈ 1820 µM) | 250 µg/mL (≈ 908 µM) | inactive | inactive | inactive | inactive | inactive | inactive | inactive | inactive
Cc1nn(Cc2nnc(S)n2-c2ccccc2)c(=O)n1CCCn1ccnc1 | 500 µg/mL (≈ 1260 µM) | 125 µg/mL (≈ 315 µM) | inactive | inactive | inactive | inactive | inactive | inactive | inactive | 500 µg/mL (≈ 1260 µM)
Cc1nn(CC(=O)NN)c(=O)n1CCCn1ccnc1 | inactive | 125 µg/mL (≈ 448 µM) | inactive | inactive | inactive | inactive | inactive | 125 µg/mL (≈ 448 µM) | 125 µg/mL (≈ 448 µM) | inactive
Cc1nn(CC(=O)NNC(=S)Nc2ccccc2)c(=O)n1/N=C/c1ccncc1 | inactive | inactive | inactive | inactive | inactive | inactive | inactive | inactive | inactive | inactive
COc1ccc(/C=N/NC(=O)Cn2nc(C)n(/N=C/c3ccncc3)c2=O)cc1 | 250 µg/mL (≈ 635 µM) | inactive | inactive | inactive | inactive | inactive | inactive | inactive | inactive | inactive
CCOC(=O)Cn1nc(C)n(CCCn2ccnc2)c1=O | 250 µg/mL (≈ 852 µM) | inactive | inactive | inactive | inactive | inactive | inactive |  | inactive | inactive
Cc1nn(CN2CCOCC2)c(=O)n1CCCn1ccnc1 | 31.2 µg/mL (≈ 102 µM) | 15.6 µg/mL (≈ 50.9 µM) | 0.24 µg/mL (≈ 0.783 µM) | 0.48 µg/mL (≈ 1.57 µM) | 0.97 µg/mL (≈ 3.17 µM) | 0.24 µg/mL (≈ 0.783 µM) | 0.48 µg/mL (≈ 1.57 µM) | 0.48 µg/mL (≈ 1.57 µM) | 0.97 µg/mL (≈ 3.17 µM) | 7.81 µg/mL (≈ 25.5 µM)
Cc1nn(CN2CCN(c3ccccc3)CC2)c(=O)n1CCCn1ccnc1 | inactive | inactive | 1.2 µg/mL (≈ 3.15 µM) | 62.5 µg/mL (≈ 164 µM) | inactive | inactive | 31.3 µg/mL (≈ 82 µM) | 0.7 µg/mL (≈ 1.83 µM) | inactive | 125 µg/mL (≈ 328 µM)
CN[C@@H]1[C@H](O[C@H]2[C@H](O[C@H]3[C@H](O)[C@@H](O)[C@H](N=C(N)N)[C@@H](O)[C@@H]3N=C(N)N)O[C@@H](C)[C@]2(O)C=O)O[C@@H](CO)[C@H](O)[C@H]1O [STREPTOMYCIN] |  | 4 µg/mL (≈ 6.88 µM) |  |  |  |  |  |  |  | 
Cc1nn(-c2ccc(/N=C3\SCC(=O)N3Cc3ccccc3)cc2F)c(=O)n1CCCn1ccnc1 | 500 µg/mL (≈ 989 µM) | 125 µg/mL (≈ 247 µM) | inactive | inactive | inactive | inactive | inactive | inactive | inactive | 500 µg/mL (≈ 989 µM)
Cc1n[nH]c(=O)n1/N=C/c1ccncc1 | 125 µg/mL (≈ 615 µM) | 125 µg/mL (≈ 615 µM) | inactive | inactive | inactive | inactive | inactive | inactive | inactive | 500 µg/mL (≈ 2460 µM)
Cc1n[nH]c(=O)n1CCCn1ccnc1 | 500 µg/mL (≈ 2410 µM) | 125 µg/mL (≈ 603 µM) |  | inactive | inactive | inactive | inactive | inactive | inactive | 1000 µg/mL (≈ 4830 µM)
Cc1nn(CC(=O)N/N=c2\sc(-c3ccc(Cl)cc3)cn2-c2ccccc2)c(=O)n1CCCn1ccnc1 | 250 µg/mL (≈ 455 µM) | 39.9 µg/mL (≈ 72.7 µM) |  | inactive | inactive | inactive | inactive | inactive | inactive | 1000 µg/mL (≈ 1820 µM)
CCOC(=O)Cn1nc(C)n(/N=C/c2ccncc2)c1=O | 250 µg/mL (≈ 864 µM) | inactive | inactive | inactive | inactive | inactive | inactive | inactive | inactive | inactive
Cc1nn(CC(=O)N/N=C/c2ccccc2O)c(=O)n1/N=C/c1ccncc1 | 250 µg/mL (≈ 659 µM) | inactive | inactive | inactive | inactive | inactive | inactive | inactive | inactive | inactive
Cc1nn(-c2ccc(/N=C/c3c(Cl)cccc3Cl)cc2F)c(=O)n1CCCn1ccnc1 | 250 µg/mL (≈ 528 µM) | 3.9 µg/mL (≈ 8.24 µM) | inactive | inactive | inactive | inactive | inactive | inactive |  | inactive
Cc1nn(-c2ccc(NC(=S)NCc3ccccc3)cc2F)c(=O)n1CCCn1ccnc1 | 500 µg/mL (≈ 1070 µM) | 250 µg/mL (≈ 537 µM) |  | inactive | inactive | inactive | inactive | inactive | inactive | 500 µg/mL (≈ 1070 µM)
Cc1nn(Cc2nnc(S)n2-c2ccccc2)c(=O)n1/N=C/c1ccncc1 | 250 µg/mL (≈ 637 µM) | inactive | inactive | inactive | inactive | inactive | inactive | inactive | inactive | inactive
Cc1nn(CNCc2ccco2)c(=O)n1CCCn1ccnc1 | 500 µg/mL (≈ 1580 µM) | 125 µg/mL (≈ 395 µM) | 125 µg/mL (≈ 395 µM) | inactive | inactive | inactive | inactive | inactive | inactive | inactive
Cc1nn(-c2ccc([N+](=O)[O-])cc2F)c(=O)n1CCCn1ccnc1 | 500 µg/mL (≈ 1440 µM) | inactive | inactive | inactive | inactive | inactive | inactive | inactive | inactive | 500 µg/mL (≈ 1440 µM)
OC(Cn1cncn1)(Cn1cncn1)c1ccc(F)cc1F [FLUCONAZOLE] | < 8 µg/mL |  |  |  |  |  |  |  |  | < 8 µg/mL
CC1(C)S[C@@H]2[C@H](NC(=O)[C@H](N)c3ccccc3)C(=O)N2[C@H]1C(=O)O [AMPICILLIN] |  |  | < 1 µg/mL | 2 µg/mL (≈ 5.72 µM) | 2 µg/mL (≈ 5.72 µM) | 8 µg/mL (≈ 22.9 µM) | > 128 µg/mL | 32 µg/mL (≈ 91.6 µM) |  | 
